From paper PMC11790914, “Chemogenomics for steroid hormone receptors (NR3)” (Communications Chemistry, 2025)
“And” between values parts separate entries of the source, which are not always exact repeats. Equal entries are not always repeated.

Assays:
ABL1 = biological target: T1, ABL1 (Homo sapiens, UniProt P00519); experiment: Liability panel screening by DSF: ABL1; assay type: binding; details: DSF, 20 µM, n=2; read-out: Mean ΔTM ABL1
T1 construct: made in house
Procedure, shortened: (§1)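 Thermal shift: in-house recombinant protein at 2 µM in 10 mM HEPES pH 7.5 with 500 mM NaCl, SYPRO Orange 1:1000, heated at 3 °C/min to 85 °C in technical duplicates. Tm is the Boltzmann inflection point, reported as ∆Tm in K.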

AURKA = biological target: T2, AURKA (Homo sapiens, UniProt O14965); experiment: Liability panel screening by DSF: AURKA; assay type: binding; details: DSF, 20 µM, n=2; read-out: Mean ΔTM AURKA
T2 construct: made in house
T2 sequence (O14965 1-403): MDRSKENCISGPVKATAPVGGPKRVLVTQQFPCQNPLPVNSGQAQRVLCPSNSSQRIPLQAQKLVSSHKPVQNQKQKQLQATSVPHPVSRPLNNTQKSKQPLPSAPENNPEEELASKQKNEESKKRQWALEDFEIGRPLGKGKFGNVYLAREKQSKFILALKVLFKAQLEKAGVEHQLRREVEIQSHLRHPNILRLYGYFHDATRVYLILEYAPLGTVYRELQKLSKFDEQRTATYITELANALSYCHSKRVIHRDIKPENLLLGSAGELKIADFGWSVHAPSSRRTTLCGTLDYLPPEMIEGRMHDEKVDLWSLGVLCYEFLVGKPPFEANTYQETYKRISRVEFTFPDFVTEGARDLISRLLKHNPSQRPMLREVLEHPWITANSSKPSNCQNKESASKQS
Procedure, shortened: as §1

CDK2 = biological target: T3, CDK2 (Homo sapiens, UniProt P24941); experiment: Liability panel screening by DSF: CDK2; assay type: binding; details: DSF, 20 µM, n=2; read-out: Mean ΔTM CDK2
T3 construct: made in house
Procedure, shortened: as §1

FGFR3 = biological target: T4, FGFR3 (Homo sapiens, UniProt P22607); experiment: Liability panel screening by DSF: FGFR3; assay type: binding; details: DSF, 20 µM, n=2; read-out: Mean ΔTM FGFR3
T4 construct: made in house
T4 sequence (P22607 23-806, species assumed): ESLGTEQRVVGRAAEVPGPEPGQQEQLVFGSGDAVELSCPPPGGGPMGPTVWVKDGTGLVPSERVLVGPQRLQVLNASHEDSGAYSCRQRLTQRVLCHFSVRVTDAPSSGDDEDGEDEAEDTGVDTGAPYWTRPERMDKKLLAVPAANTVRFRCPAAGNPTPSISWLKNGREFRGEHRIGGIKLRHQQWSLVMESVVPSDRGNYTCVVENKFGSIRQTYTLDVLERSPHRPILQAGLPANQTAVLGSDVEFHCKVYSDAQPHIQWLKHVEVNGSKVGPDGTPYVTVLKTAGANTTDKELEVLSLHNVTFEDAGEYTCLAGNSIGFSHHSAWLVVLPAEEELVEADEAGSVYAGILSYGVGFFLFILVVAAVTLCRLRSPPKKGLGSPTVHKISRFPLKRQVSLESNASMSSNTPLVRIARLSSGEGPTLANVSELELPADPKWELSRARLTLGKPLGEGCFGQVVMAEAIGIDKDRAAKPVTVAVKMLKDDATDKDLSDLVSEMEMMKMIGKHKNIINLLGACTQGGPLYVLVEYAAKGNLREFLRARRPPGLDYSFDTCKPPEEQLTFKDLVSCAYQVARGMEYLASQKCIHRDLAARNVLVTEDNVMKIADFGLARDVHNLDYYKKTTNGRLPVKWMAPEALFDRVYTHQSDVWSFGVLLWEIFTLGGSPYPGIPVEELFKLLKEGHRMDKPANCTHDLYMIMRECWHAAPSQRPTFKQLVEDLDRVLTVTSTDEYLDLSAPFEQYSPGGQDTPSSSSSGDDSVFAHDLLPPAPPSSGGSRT
Procedure, shortened: as §1

GSK3B = biological target: T5, GSK3B (Homo sapiens, UniProt P49841); experiment: Liability panel screening by DSF: GSK3B; assay type: binding; details: DSF, 20 µM, n=2; read-out: Mean ΔTM GSK3B
T5 construct: made in house
T5 sequence (P49841 whole entry, species assumed): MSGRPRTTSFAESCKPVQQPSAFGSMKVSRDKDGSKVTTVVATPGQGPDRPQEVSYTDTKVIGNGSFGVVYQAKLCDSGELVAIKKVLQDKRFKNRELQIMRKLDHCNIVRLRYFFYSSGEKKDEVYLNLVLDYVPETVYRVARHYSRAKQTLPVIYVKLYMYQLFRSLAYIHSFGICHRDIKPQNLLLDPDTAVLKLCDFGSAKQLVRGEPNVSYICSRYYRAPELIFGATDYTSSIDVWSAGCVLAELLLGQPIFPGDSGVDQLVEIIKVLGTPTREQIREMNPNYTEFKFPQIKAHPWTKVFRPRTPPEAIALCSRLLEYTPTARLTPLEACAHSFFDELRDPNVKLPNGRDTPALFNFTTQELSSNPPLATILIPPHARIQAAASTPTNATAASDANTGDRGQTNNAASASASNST

BRD4 = biological target: T6, BRD4 (Homo sapiens, UniProt O60885); experiment: Liability panel screening by DSF: BRD4; assay type: binding; details: DSF, 20 µM, n=2; read-out: Mean ΔTM BRD4
T6 construct: This panel comprised ten highly ligandable kinases and bromodomains; made in house
Procedure, shortened: as §1

BRPF1 = biological target: T7, BRPF1 (Homo sapiens, UniProt P55201); experiment: Liability panel screening by DSF: BRPF1; assay type: binding; details: DSF, 20 µM, n=2; read-out: Mean ΔTM BRPF1
T7 construct: This panel comprised ten highly ligandable kinases and bromodomains; made in house
T7 sequence (P55201 628-732 limits assumed): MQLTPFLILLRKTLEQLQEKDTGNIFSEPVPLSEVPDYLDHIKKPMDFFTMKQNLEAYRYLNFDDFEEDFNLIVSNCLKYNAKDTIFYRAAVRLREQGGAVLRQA
Procedure, shortened: as §1

CSNK1D = biological target: T8, CSNK1D (Homo sapiens, UniProt P48730); experiment: Liability panel screening by DSF: CSNK1D; assay type: binding; details: DSF, 20 µM, n=2; read-out: Mean ΔTM CSNK1D
T8 construct: made in house
T8 sequence (P48730 whole entry, species assumed): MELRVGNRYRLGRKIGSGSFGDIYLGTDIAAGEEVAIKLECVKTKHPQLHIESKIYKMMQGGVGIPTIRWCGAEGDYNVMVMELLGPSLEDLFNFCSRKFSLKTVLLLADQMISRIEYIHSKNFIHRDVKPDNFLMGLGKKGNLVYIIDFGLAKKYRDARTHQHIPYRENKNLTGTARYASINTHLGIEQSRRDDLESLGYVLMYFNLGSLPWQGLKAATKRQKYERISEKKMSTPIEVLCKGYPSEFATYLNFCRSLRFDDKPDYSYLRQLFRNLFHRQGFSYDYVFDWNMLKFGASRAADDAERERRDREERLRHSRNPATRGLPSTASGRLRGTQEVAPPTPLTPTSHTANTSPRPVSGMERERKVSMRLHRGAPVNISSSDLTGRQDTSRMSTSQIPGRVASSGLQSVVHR
Procedure, shortened: as §1

MAPK1 = biological target: T9, MAPK1 (Homo sapiens, UniProt P28482); experiment: Liability panel screening by DSF: MAPK1; assay type: binding; details: DSF, 20 µM, n=2; read-out: Mean ΔTM MAPK1
T9 construct: made in house
T9 sequence (P28482 whole entry, species assumed): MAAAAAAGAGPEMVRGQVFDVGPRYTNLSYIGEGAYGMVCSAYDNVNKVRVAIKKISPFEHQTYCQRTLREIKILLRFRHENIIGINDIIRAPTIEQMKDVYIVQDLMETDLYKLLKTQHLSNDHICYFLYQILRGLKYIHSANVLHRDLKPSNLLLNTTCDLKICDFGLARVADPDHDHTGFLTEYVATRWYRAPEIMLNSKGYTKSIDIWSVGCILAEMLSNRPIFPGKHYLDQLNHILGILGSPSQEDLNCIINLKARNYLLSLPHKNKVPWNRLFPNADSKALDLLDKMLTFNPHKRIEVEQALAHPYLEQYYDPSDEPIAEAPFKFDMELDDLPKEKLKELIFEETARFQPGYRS
Procedure, shortened: as §1

TRIM24 = biological target: T10, TRIM24 (Homo sapiens, UniProt O15164); experiment: Liability panel screening by DSF: TRIM24; assay type: binding; details: DSF, 20 µM, n=2; read-out: Mean ΔTM TRIM24
T10 construct: This panel comprised ten highly ligandable kinases and bromodomains; made in house
T10 sequence (O15164 899-1004 limits assumed): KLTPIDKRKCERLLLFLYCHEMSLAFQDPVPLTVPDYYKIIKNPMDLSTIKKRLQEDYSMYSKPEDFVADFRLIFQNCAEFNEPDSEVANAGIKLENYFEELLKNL
Procedure, shortened: as §1

NR3C1 (GR) = details: (lit.); ref Supplementary Table 1; read-out: Potency [nM] EC50, NR3C1 (GR); cited from earlier work
[1] = other targets with annotated bioactivities at ≤10 µM in previously published dataset; cited from earlier work
HEK293T cells [2] = experiment: Cytotoxicity: metabolic activity (WST-8 / CCK-8 assay); details: 1 µM, single replicates
HEK293T cells [3] = experiment: Cytotoxicity: growth-rate (change in confluence over 24 h); details: 1 µM, normalized to 0.1% DMSO control, single replicates (n=1...)
HEK293T cells [4] = experiment: Cytotoxicity: apoptosis induction (caspase-3/7 DEVD fluorogenic DNA dye); details: 1 µM, single replicates
HEK293T cells [5] = experiment: Cytotoxicity: necrosis induction (red fluorescent dye for permeable plasma membranes); assay type: cell-based; details: 1 µM, 24 h, necrotic cell count normalized to 0.1% DMSO, single replicates;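 note: compounds applied in DMEM high glucose with 0.1% FCS and 0.1% DMSO, necrotic HEK293T cells counted by red staining of cells whose plasma membranes had become permeable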
Gal4-VP16 = assay type: cell-based; details: 1 µM; vs. DMSO ctrl; single replicates n=1-3
[6] = test system: NF-κB activity in HEK293 NF-κB reporter cells; experiment: NF-kB activity assay (GFP reporter, ionomycin/PMA); assay type: cell-based; details: n=3
Procedure, shortened: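 HEK293 NF-κB GFP reporter cells given compound in 0.1% DMSO for 4 h, then stimulated with ionomycin 100 ng/mL plus PMA 10 ng/mL. Imaged every 90 min over 24 h; GFP-positive cell count normalized to confluence, three independent biological replicates.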

[7] = test system: ATF6 activity in Hela ATF6 reporter cells; experiment: Endoplasmic reticulum stress assay (ATF6 Renilla luciferase reporter, tunicamycin); assay type: cell-based; details: Homo sapiens, HeLa, 1 µM, single replicates n=1 to n=5; read-out: ER stress [rel. ATF6 activity]
Procedure, shortened: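 HeLa ATF6 Renilla reporter cells were pretreated 4 h with compounds in 0.1% DMSO, then stimulated with tunicamycin (100 ng/mL) for 18 h. Renilla luminescence (DualGlo) was normalized to 0.1% DMSO control; five independent experiments.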

[8] = HEK293T, 24 h, WST-8, normalized to 0.1% DMSO
[9] = HEK293T, 24 h, apoptotic cell count normalized to 0.1% DMSO

T1 sequence (P00519 whole entry, species assumed): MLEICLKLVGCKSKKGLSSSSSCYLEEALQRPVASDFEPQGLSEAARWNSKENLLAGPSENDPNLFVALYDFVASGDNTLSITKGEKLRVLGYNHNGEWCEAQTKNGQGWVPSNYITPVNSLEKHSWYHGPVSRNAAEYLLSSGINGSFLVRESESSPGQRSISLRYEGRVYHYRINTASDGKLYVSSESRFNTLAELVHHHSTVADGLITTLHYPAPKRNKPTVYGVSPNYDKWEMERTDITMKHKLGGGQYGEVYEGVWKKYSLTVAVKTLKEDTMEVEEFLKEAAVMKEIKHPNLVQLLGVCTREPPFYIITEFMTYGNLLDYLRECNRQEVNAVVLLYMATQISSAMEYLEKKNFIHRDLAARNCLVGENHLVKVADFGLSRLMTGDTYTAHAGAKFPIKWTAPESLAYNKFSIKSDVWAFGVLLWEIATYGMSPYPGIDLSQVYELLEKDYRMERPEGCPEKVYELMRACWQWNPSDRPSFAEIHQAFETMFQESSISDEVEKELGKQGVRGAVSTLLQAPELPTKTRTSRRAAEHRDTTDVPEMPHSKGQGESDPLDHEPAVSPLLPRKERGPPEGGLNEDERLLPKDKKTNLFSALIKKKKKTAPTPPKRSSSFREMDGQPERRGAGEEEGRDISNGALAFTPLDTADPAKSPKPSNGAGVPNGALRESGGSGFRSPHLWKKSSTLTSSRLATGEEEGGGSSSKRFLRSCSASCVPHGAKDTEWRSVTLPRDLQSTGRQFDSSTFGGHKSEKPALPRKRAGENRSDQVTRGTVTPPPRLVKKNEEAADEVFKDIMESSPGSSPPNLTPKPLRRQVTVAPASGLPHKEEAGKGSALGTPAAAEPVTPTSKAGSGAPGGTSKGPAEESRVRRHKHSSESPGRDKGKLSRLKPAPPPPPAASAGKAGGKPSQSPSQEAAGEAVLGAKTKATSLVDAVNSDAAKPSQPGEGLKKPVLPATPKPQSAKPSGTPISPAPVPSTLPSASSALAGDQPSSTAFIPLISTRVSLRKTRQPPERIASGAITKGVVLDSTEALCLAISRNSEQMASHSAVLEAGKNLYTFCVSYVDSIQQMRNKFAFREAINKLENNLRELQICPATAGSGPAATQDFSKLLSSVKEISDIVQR

Structure (SMILES) | ΔTm at 20 µM (ABL1) [°C] | ΔTm at 20 µM (AURKA) [°C] | ΔTm at 20 µM (CDK2) [°C] | ΔTm at 20 µM (FGFR3) [°C] | ΔTm at 20 µM (GSK3B) [°C] | ΔTm at 20 µM (BRD4) [°C] | ΔTm at 20 µM (BRPF1) [°C] | ΔTm at 20 µM (CSNK1D) [°C] | ΔTm at 20 µM (MAPK1) [°C] | ΔTm at 20 µM (TRIM24) [°C] | Growth rate [GR] (HEK293T cells [3]) | Necrosis induction [NI] (HEK293T cells [5]) | VP16 control [fold reporter gene activity] (Gal4-VP16) | Mean NFκB response ([6]; 1 µM, 1,5 h) | Mean NFκB response ([6]; 1 µM, 4,5 h) | Mean NFκB response ([6]; 1 µM, 7,5 h) | Mean NFκB response ([6]; 1 µM, 10,5 h) | Mean NFκB response ([6]; 1 µM, 13,5 h) | Mean NFκB response ([6]; 1 µM, 16,6 h) | Mean NFκB response ([6]; 1 µM, 19,5 h) | further results
CCC(=O)O[C@]1(C(=O)SCF)[C@H](C)C[C@H]2[C@@H]3C[C@H](F)C4=CC(=O)C=C[C@]4(C)[C@@]3(F)[C@@H](O)C[C@@]21C [Fluticasone propionate] | 0.19 | 0.09 | 0.15 | 0.32 | -0.55 | -0.24 | -0.69 | -0.0152 | -0.034 | -0.08 | 0.78 and 1.00 and 1.07 and 0.88 (2×) and 0.82 | – | – | – | – | – | – | – | – | – | EC50 (NR3C1 (GR)): 1 nM; Reason for exclusion: number of annotated off-targets [1]: > 5 off-targets; Metabolic activity [MA] (HEK293T cells [2]; DMSO 0.1% = 1.00): 0.94 and 0.83 and 1.03 and 1.06 and 1.10 and 1.04; Apoptosis induction [AI] (HEK293T cells [4]; DMSO 0.1% = 1.00): 0.81 and 1.24
Oc1ccc(-c2c(-c3ccccc3)nn3c(C(F)(F)F)cc(C(F)(F)F)nc23)cc1 [PHTPP] | 2.06 | -0.53 | 0.46 | 1.15 | -0.0558 | -1.27 | -1.38 | 0.39 | -0.2 | -0.6 | 0.97 and 0.45 and 1.07 and 1.62 and 1.13 and 0.53 and 1.06 and 0.18 and 2.38 and 3.71 | 1.05 and 0.87 and 0.89 and 1.10 | 0.97 fold reporter gene activity and 1.04 fold reporter gene activity and 1.08 fold reporter gene activity | 2680.27 GFP+-cells/confluence ∙ 1000 | 3558.89 GFP+-cells/confluence ∙ 1000 | 8794.33 GFP+-cells/confluence ∙ 1000 | 18394.67 GFP+-cells/confluence ∙ 1000 | 26267.00 GFP+-cells/confluence ∙ 1000 | 32070.00 GFP+-cells/confluence ∙ 1000 | 36033.33 GFP+-cells/confluence ∙ 1000 | Mean NFκB response ([6]; 1 µM, 22,5 h): 39210.00 GFP+-cells/confluence ∙ 1000; Mean NFκB response ([6]; 1 µM, 3 h): 2926.71 GFP+-cells/confluence ∙ 1000; Mean NFκB response ([6]; 1 µM, 6 h): 4822.41 GFP+-cells/confluence ∙ 1000; Mean NFκB response ([6]; 1 µM, 9 h): 14065.00 GFP+-cells/confluence ∙ 1000; Mean NFκB response ([6]; 1 µM, 12 h): 22714.33 GFP+-cells/confluence ∙ 1000; Mean NFκB response ([6]; 1 µM, 15 h): 29343.33 GFP+-cells/confluence ∙ 1000; Mean NFκB response ([6]; 1 µM, 18 h): 34043.33 GFP+-cells/confluence ∙ 1000; Mean NFκB response ([6]; 1 µM, 21 h): 37940.00 GFP+-cells/confluence ∙ 1000; Mean NFκB response ([6]; 1 µM, 24 h): 40376.67 GFP+-cells/confluence ∙ 1000; activity at 1 µM [7]: 100%; Metabolic activity [MA] (HEK293T cells [2]; [8]): 1.07 and 1.08 and 1.01 and 1.13 and 1.04 (2×) and 0.95 and 1.05; Apoptosis induction [AI] (HEK293T cells [4]; [9]): 0.81 and 1.09 and 0.92 and 1.05 and 0.26 and 0.21
COC(=O)[C@@H]1CC2=CC(=O)CC[C@]2(C)[C@@]23O[C@@H]2C[C@@]2(C)[C@@H](CC[C@@]24CCC(=O)O4)[C@H]13 [Eplerenone] | 0.55 | -0.81 | -0.21 | 1.06 | -0.8 | -1.74 | -1.07 | 0.47 | 0.21 | -0.62 | 0.85 and 4.28 and 0.92 and 1.11 and 0.73 and 0.84 and 0.96 and 4.53 and 0.57 and 31.96 | 1.05 and 1.24 and 1.00 and 0.99 | 1.24 fold reporter gene activity and 0.82 fold reporter gene activity and 1.00 fold reporter gene activity | 2599.33 GFP+-cells/confluence ∙ 1000 | 2970.00 GFP+-cells/confluence ∙ 1000 | 5786.00 GFP+-cells/confluence ∙ 1000 | 15820.00 GFP+-cells/confluence ∙ 1000 | 23870.00 GFP+-cells/confluence ∙ 1000 | 30236.67 GFP+-cells/confluence ∙ 1000 | 34356.67 GFP+-cells/confluence ∙ 1000 | Mean NFκB response ([6]; 1 µM, 22,5 h): 38213.33 GFP+-cells/confluence ∙ 1000; Mean NFκB response ([6]; 1 µM, 3 h): 2606.00 GFP+-cells/confluence ∙ 1000; Mean NFκB response ([6]; 1 µM, 6 h): 3625.00 GFP+-cells/confluence ∙ 1000; Mean NFκB response ([6]; 1 µM, 9 h): 10753.00 GFP+-cells/confluence ∙ 1000; Mean NFκB response ([6]; 1 µM, 12 h): 20210.00 GFP+-cells/confluence ∙ 1000; Mean NFκB response ([6]; 1 µM, 15 h): 27316.67 GFP+-cells/confluence ∙ 1000; Mean NFκB response ([6]; 1 µM, 18 h): 32426.67 GFP+-cells/confluence ∙ 1000; Mean NFκB response ([6]; 1 µM, 21 h): 36556.67 GFP+-cells/confluence ∙ 1000; Mean NFκB response ([6]; 1 µM, 24 h): 39176.67 GFP+-cells/confluence ∙ 1000; activity at 1 µM [7]: 96%; Metabolic activity [MA] (HEK293T cells [2]; [8]): 1.06 and 1.03 and 0.91 and 0.99 (3×) and 0.98 and 1.09; Apoptosis induction [AI] (HEK293T cells [4]; [9]): 0.96 and 0.85 and 1.29 and 1.36 and 1.16 and 1.24
